Where two headings read alike, the source gives them in different places.
Columns and labels:
[1] = system: voltage-gated sodium channels (VGSCs), Na+ currents in SCNs; test: Na+ currents, whole-cell patch clamp in SCNs; format: cell-based, C57BL/6 mice
Experimental: (§1) SCN cultures were performed as described previously. The dissociated neurons were planted into poly-L-lysine-coated 35 mm Petri dishes, 96-well plates at densities of 2 × 10^3 cells/dish for patch clamp, 2.25 × 10^5 and 2 × 10^3 cells/well for Ca^2+ imaging and neurite outgrowth experiments, respectively. Cells at 6–8 DIVs (days in vitro) were used to measure K^+ and Na^+ currents, membrane potential, or intracellular Ca^2+ concentration ([Ca^2+]i).
(§2) Current-clamp recordings can provide useful information about the contribution of a channel to membrane potential. Membrane potentials, Na^+ and K^+ currents in SCNs (6–8 DIVs), were recorded using whole-cell patch clamp using an EPC-10 amplifier and PatchMaster software (HEKA, Pfalz, Germany). Pipettes were pulled from 1.5 mm capillary tubing using a P-1000 puller (Sutter Instrument, Novato, CA, USA). The pipette resistance was 2–4 MΩ.
(§3) For current-clamp recordings, to record changes in membrane potential, patch pipettes were filled with intracellular solution containing the following (in mM): KCl 140, MgCl2 5, CaCl2 2.5, EGTA 5, ATP 4, GTP 0.3, and HEPES 10 (pH adjusted to 7.3 with KOH). The external solution contained the following (in mM): NaCl 140, MgCl2 1, KCl 5, CaCl2 2, glucose 10, and HEPES 10 (pH adjusted to 7.3 with NaOH). The membrane potentials were recorded by a 0 pA input current with a duration of 1 s. For voltage-clamp recordings, to record potassium currents, patch pipettes were filled with an internal solution containing (in mM): KCl 140, CaCl2 1, MgCl2 2.5, HEPES 10, EGTA 11, and ATP 4, and pH was adjusted to 7.2 with KOH. Cells were bathed in an external solution containing the following (in mM): choline chloride 150, KCl 5, MgCl2 1, HEPES 10, D-glucose 10, and NMDG 2, and pH was adjusted to 7.4 with KOH. […] Data were collected and analyzed using PatchMaster (HEKA Electronics, Pfalz, Germany) and SigmaPlot (version 10.3, Sigma-Aldrich). […]

[2] = system: PC12 cells; conditions: via TrkA receptors; ref [38]; cited from earlier work
[3] = system: sensory neurons; conditions: via TrkA receptors; ref [39]; cited from earlier work
[4] = system: spinal cord neurons (SCNs); test: Neurite outgrowth, MAP2 immunocytochemistry in SCNs; format: cell-based, C57BL/6 mice
Experimental: as §1
Immunocytochemistry was performed as described previously. After fixation, permeabilization, and blocking, neurons were incubated with primary antibody against MAP2 (1:1000) overnight at 4 °C and Alexa Fluor 488-conjugated goat anti-rabbit secondary antibody (1:1000) for 1 h at room temperature (RT), respectively. Hoechst 33,342 (1.6 μg/mL) was added into each well and incubated for 20 min to stain the nuclei. The images were captured by an eclipse inverted fluorescence microscope (Nikon, Tokyo, Japan). Neurites were manually tracked using ImageJ software (FIJI, version 1.51 g, NIH, Bethesda, MD, USA). Only the neurons with total neurite length ≥50 μm were used for quantification. The experiment was performed double blindly.

[5] = system: spinal cord neurons (SCNs); test: Spontaneous calcium oscillation (SCO) measurement, FLIPR Tetra, primary cultured spinal cord neurons; format: cell-based, C57BL/6 mice; conditions: 6-8 DIV, N = 4 wells; for EC50: primary cultured SCNs, FLIPR Tetra, Hill slope = 1.0
Experimental: as §1
The intracellular Ca^2+ concentration [Ca^2+]i of SCNs was measured using FLIPR^Tetra® system (Molecular Devices, Sunnyvale, CA, USA) as described previously.
All data were presented as mean ± SEM. Graphing and data analysis were performed using GraphPad Prism software (Version 6.0, San Diego, CA, USA). Concentration–response curves were fitted by a nonlinear logistic equation. The IC50 values and 95% confidence intervals (CI) were determined by nonlinear regression using GraphPad Prism software. Statistical significance between different groups was calculated using an ANOVA and, where appropriate, a Dunnett′s multiple comparison test. A p-value below 0.05 was considered statistically significant.

[6] = system: spinal cord neurons (SCNs), membrane potential; test: Membrane potential, whole-cell current-clamp recording in SCNs; format: cell-based, C57BL/6 mice
Experimental: as §1, §2
For current-clamp recordings, to record changes in membrane potential, patch pipettes were filled with intracellular solution containing the following (in mM): KCl 140, MgCl2 5, CaCl2 2.5, EGTA 5, ATP 4, GTP 0.3, and HEPES 10 (pH adjusted to 7.3 with KOH). […] The membrane potentials were recorded by a 0 pA input current with a duration of 1 s. […] Data were collected and analyzed using PatchMaster (HEKA Electronics, Pfalz, Germany) and SigmaPlot (version 10.3, Sigma-Aldrich). […]

[7] = system: Kv channels, outward K+ currents (IK) in SCNs; test: Outward K+ current IK (IA + ID), whole-cell patch clamp in SCNs; format: cell-based, C57BL/6 mice
Experimental: as §1, §2
For current-clamp recordings, to record changes in membrane potential, patch pipettes were filled with intracellular solution containing the following (in mM): KCl 140, MgCl2 5, CaCl2 2.5, EGTA 5, ATP 4, GTP 0.3, and HEPES 10 (pH adjusted to 7.3 with KOH). The external solution contained the following (in mM): NaCl 140, MgCl2 1, KCl 5, CaCl2 2, glucose 10, and HEPES 10 (pH adjusted to 7.3 with NaOH). The membrane potentials were recorded by a 0 pA input current with a duration of 1 s. For voltage-clamp recordings, to record potassium currents, patch pipettes were filled with an internal solution containing (in mM): KCl 140, CaCl2 1, MgCl2 2.5, HEPES 10, EGTA 11, and ATP 4, and pH was adjusted to 7.2 with KOH. Cells were bathed in an external solution containing the following (in mM): choline chloride 150, KCl 5, MgCl2 1, HEPES 10, D-glucose 10, and NMDG 2, and pH was adjusted to 7.4 with KOH. To record sodium currents, patch pipettes were filled with an internal solution containing the following (in mM): CsF 135, HEPES 5, and NaCl 10, and pH was adjusted to 7.2 with CsOH. Cells were bathed in external solution containing the following (in […]): NaCl 30, MgCl2 1, CaCl2 1.8, CsCl 5, D-glucose 25, KCl 5, HEPES 5, TEACl 90, and KCl 5, and pH was adjusted to 7.4 with NaOH. Capacitance and series resistance were compensated using computer-controlled circuitry of the amplifier. The outward potassium currents (IK), which contain both transient (IA) and sustained delayed-rectifier (ID) components, were elicited by a series of depolarizing pulses from −110 mV to the potentials ranged from −60 to +80 mV in a 10 mV increment. To record the ID currents, voltages were stepped to the potentials ranged from −60 to +80 mV in a 10 mV increment from a 200 ms pre-depolarization potential of −40 mV that inactivated IA currents. IA currents were obtained by subtracting ID currents from IK currents. Na^+ currents were elicited by depolarization steps from a holding potential of −100 mV to +45 mV in a 5 mV increment. Data were collected and analyzed using PatchMaster (HEKA Electronics, Pfalz, Germany) and SigmaPlot (version 10.3, Sigma-Aldrich). Concentration–response curves were fitted using the Hill equation: Inor= C + A/[1 + ([BmK NSPK]/EC50)^p] […]
(§4) All data were presented as mean ± SEM. […] Statistical significance between different groups was calculated using an ANOVA and, where appropriate, a Dunnett′s multiple comparison test. […]

[8] = system: Kv channels, delayed-rectifier (ID) currents in SCNs; test: Sustained delayed-rectifier K+ current ID, whole-cell patch clamp in SCNs; format: cell-based, C57BL/6 mice
Experimental: as §1, §2, §3, §4

[9] = system: Kv channels, transient (IA) currents in SCNs; test: Transient K+ current IA, whole-cell patch clamp in SCNs; format: cell-based, C57BL/6 mice
Experimental: as §1, §2, §3, §4

[10] = system: nerve growth factor (NGF) release in SCNs; test: NGF release into culture medium of SCNs, ELISA; format: cell-based, C57BL/6 mice; conditions: 10 nM, n = 4
Experimental: The NGF levels in the culture medium were determined by enzyme-linked immunosorbent assay (ELISA) kits according to the manufacturer’s instructions.

[11] = system: protein kinase B (Akt) phosphorylation in SCNs; test: Akt phosphorylation in SCNs, Western blot; format: cell-based, C57BL/6 mice; conditions: 30 nM, n = 4
Experimental: Equal amounts (30 μg) of cell lysates were loaded onto a 10% SDS-PAGE gel and transferred to a nitrocellulose membrane by electroblotting. After blocking, the blots were incubated with primary antibodies against p-Akt (1:1000) overnight at 4 °C and then incubated with the IRDye (680 RD or 800 CW)-labeled secondary antibodies (1:10,000) for 1 h at RT. The membranes were scanned and densitometry was quantified using LI-COR Odyssey Infrared Imaging System and its application software (version 2.1, LI-COR Biotechnology). The membranes were stripped with stripping buffer (LI-COR Biotechnology) and reblotted for analysis of the expression of Akt. Beta-tubulin (1:10,000) was used as a loading control.

NC1=N[C@H](O)[C@H]2[C@H]3O[C@]4(O)O[C@@H]([C@@H](O)[C@@]2(N1)[C@@H]4O)[C@]3(O)CO [tetrodotoxin, reference compound]
Effect on Na+ currents [1]: suppressed the Na^+ currents

nerve growth factor [NGF]
Effect on neurite extension [2]: enhance the neurite extension
Effect on neurite extension [3]: enhance the neurite extension

Cn1cc(/C=C2\C(=O)Nc3cccnc32)c2ccccc21 [GW 441756, reference compound]
Effect on BmK NSPK-induced neurite outgrowth ([4]; GW 441756 1 μM added 30 min before BmK NSPK (10 nM), 48 h, p < 0.01 vs. BmK NSPK): abolished BmK NSPK-induced neurite outgrowth

BmK NSPK: new short-chain scorpion peptide purified from Buthus martensii Karsch venom, Kv channel inhibitor, sequence by Edman degradation (VGKNVICIHSGQCLIPCIDAGMRFGICKNGICDCTPKG)
Effect on amplitude and frequency of SCOs ([5]; SCNs): rapid and sustained increase in both the amplitude and frequency of SCOs
EC50 ([5]; 95% CI 2.22–17.4 nM, read-out: EC50 for increase in SCO frequency): 6.22 nM
EC50 ([5]; 95% CI 4.00–45.1 nM, read-out: EC50 for increase in SCO amplitude): 13.4 nM
Apparent affinity for membrane depolarization (and SCO increase) ([6]; SCN cultures, discussion wording): low apparent nanomolar affinity
Effect on membrane potential ([6]; SCNs, 6-8 DIV, 0 pA input, whole-cell current clamp): concentration-dependent membrane depolarization
Voltage dependence of IK inhibition ([7]; 300 nM): voltage-dependent
Effect on IK currents ([7]; 300 nM, depolarizing potentials −60 to +80 mV from holding −110 mV): inhibited the IK currents at all depolarized potentials
IC50 ([7]; depolarization from -110 mV to +70 mV, 95% CI 0.68–8.61 nM, Hill slope = −0.86, N = 4–5 neurons, read-out: IC50, suppression of IK currents): 2.42 nM
Potency on outward potassium channel currents ([7]; discussion wording, SCNs): single-digit nanomolar concentrations
Completeness of inhibition of IK, IA and ID currents ([7]; highest concentration (100 nM)): incomplete even at the highest concentration (100 nM)
Effect on ID currents ([8]; 300 nM, potentials −60 to +80 mV after 200 ms pre-depolarization at −40 mV): inhibited ID currents elicited by a series of depolarization potentials with voltage dependence
Maximal inhibition of ID currents ([8]; Figure 4J): ~ 43%
IC50 ([8]; depolarization from -40 mV to +70 mV, 95% CI 0.68–7.44 nM, Hill slope = −0.86, N = 4–5 neurons, read-out: IC50, suppression of ID currents): 2.24 nM
Effect on IA currents ([9]; 300 nM, each depolarizing potential): suppressed IA currents at each depolarizing potential
Maximal inhibition of IA currents ([9]; Figure 4J): ~ 75%
IC50 ([9]; IA = IK minus ID, 95% CI 0.41–2.13 nM, Hill slope = −1.27, N = 4–5 neurons, read-out: IC50, suppression of IA currents): 0.93 nM
Effect on Na+ currents ([1]; 1000 nM, holding −100 mV to +45 mV in 5 mV increments, N = 4–5 neurons): no effect on the Na^+ currents
Effect on VGSCs ([1]; discussion wording): little effect on VGSCs
Concentration of maximal stimulation of neurite extension ([4]; 48 h exposure commencing 5 h post-plating): ~ 10 nM
Effect on neurite extension ([4]; 48 h exposure commencing 5 h post-plating, MAP2 staining): stimulated neurite extension in cultured SCNs in a nonmonotonic manner
Duration of NGF release [10]: at least 8 h
Increase in NGF release ([10]; p < 0.05 vs. Veh): ~ 50%
Duration of Akt phosphorylation increase [11]: ≥ 30 min
Onset of Akt phosphorylation increase [11]: ≤ 5 min
Phosphorylated levels of Akt ([11]; p < 0.01 vs. Veh): rapidly increased phosphorylated levels of Akt

— PMC7824859, “BmK NSPK, a Potent Potassium Channel Inhibitor from Scorpion Buthus martensii Karsch, Promotes Neurite Outgrowth via NGF/TrkA Signaling Pathway” (Toxins, 2021)
